Test [1] has as its target T1, human IGF1R kinase domain (Homo sapiens, UniProt P08069).
T1 construct: human IGF1R precursor protein corresponding to the amino acids positions 974 through 1293; 6xHis; made in house; host or cells: SF9 insect cells, recombinant baculovirus (Bac-to-Bac System)
As to the kind of experiment: IGF1R tyrosine phosphorylation inhibition, Alphascreen phosphotyrosine PT66 assay. It counts as biochemical. The note with it: recombinant kinase domain, 1 hour co-incubation, 20 to 0.1 μM. The protocol:
Inhibition of IGF1R tyrosine phosphorylation was measured in the Alphascreen phosphotyrosine PT66 assay kit (Perkin Elmer Life sciences, Catalog number 6760602) according to the manufacturer's instructions. As a source of enzymatically active IGF1r kinase for this assay, SF9 insect cells were infected with recombinant baculovirus (Bac-to-Bac System, Invitrogen, Carlsbad, Calif.) encoding 6×His-tagged kinase domain portion of human IGF1R precursor protein corresponding to the amino acids positions 974 through 1293 (Abbott et al., 1992, J. Biol. Chem. 267:10759-10763) and recombinant kinase protein was purified to homogeneity using two-step chromatography on immobilized Ni^2+ resin (Ni-NTA) and ion-exchange Q-Sepharose column. Biotinylated poly glu-tyr 4:1 (CIS bio-international, catalog number 61GT0BLA) was used for the kinase substrate. Compounds were serially diluted to give a concentration range from 20 to 0.1 μM and co-incubated with IGF1r kinase, biotinylated peptide substrate and alphascreen components for 1 hour and then read in a Perkin-Elmer alphafusion plate reader. A plot of counts per minute versus log concentration of compounds was fitted to a sigmoidal dose response curve using Graphpad Prism software to generate IC50 values (see FIG. 1 for an example).
A general note: Alpha assays give light when donor and acceptor beads are brought close together.

In test [2] the test system is MCF7 human breast tumor cells. Description: CellTiter-Glo luminescent cell viability assay, MCF7. It counts as cell-based. The note with it: 48 hours, 20 to 0.1 μM. The protocol: (§1) Cell viability of either MCF7 human breast tumor cells (American Type Culture Collection catalog #HTB 22) or NCI-H929 human plasmacytoma cells (ATCC catalog #CRL-9068) was assessed using the Promega CellTiter-Glo luminescent cell viability assay according to manufacturer's instructions. In brief, cells were plated at 10,000 cells per well in a clear bottom white 96 well microtiter plate (Costar catalog #3604) in 100 μL of cell growth medium. Compounds were then added to the cells to give final concentrations of compound ranging from 20 to 0.1 μM. Cells were incubated 48 hours after which 100 μL per well of celltiter-glo reagent was added and luminescence was measured in a BMG polarstar plate luminometer. A plot of counts per minute versus log concentration of compounds was fitted to a sigmoidal dose response curve using Graphpad Prism software to generate IC50 values.
Background: In ATP-based viability assays light output follows the ATP content of the culture.

The test system of test [3] is NCI-H929 human plasmacytoma cells. Description: CellTiter-Glo luminescent cell viability assay, NCI-H929. It counts as cell-based. To be noted: 48 hours, 20 to 0.1 μM. Here is the method: as §1
For test [4], the target named is T2, recombinant TrkA kinase domain (Homo sapiens, UniProt P04629).
T2 construct: commercial preparation of recombinant TrkA kinase domain; purchased Upstate Cell Signaling 14-571
T2 sequence (P04629 510-781 limits assumed): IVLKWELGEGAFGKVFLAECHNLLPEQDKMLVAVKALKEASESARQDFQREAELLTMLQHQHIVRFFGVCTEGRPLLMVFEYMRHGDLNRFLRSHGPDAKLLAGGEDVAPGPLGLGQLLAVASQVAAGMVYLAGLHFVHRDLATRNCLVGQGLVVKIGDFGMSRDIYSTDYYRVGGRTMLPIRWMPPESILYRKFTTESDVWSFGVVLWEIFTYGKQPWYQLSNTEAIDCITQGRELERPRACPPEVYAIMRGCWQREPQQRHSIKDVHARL
Description: TrkA tyrosine kinase activity inhibition, Alphascreen phosphotyrosine PT66 assay. It counts as biochemical. To be noted: compounds 10 to 0.005 μM, 1 hour incubation. The protocol: Inhibition of TrkA tyrosine kinase activity was measured using the Alphascreen phosphotyrosine PT66 assay kit (Perkin Elmer Life Sciences, Catalog Number 6760602) according to the manufacturer's instructions. As a source of enzymatically active TrkA kinase for this assay, the commercial preparation of recombinant TrkA kinase domain (Upstate Cell Signaling, Catalog Number 14-571) was used. Biotinylated poly Glu-Tyr 4:1 (CIS bio-international, catalog number 61GT0BLA) was used for the kinase substrate. Compounds were serially diluted to give a concentration range from 10 to 0.005 μM and co-incubated with TrkA kinase, biotinylated peptide substrate and Alphascreen kit components for 1 hour and then read in a Perkin-Elmer Alpha Fusion plate reader. A plot of counts per minute versus log concentration of compounds was fitted to a sigmoidal dose response curve using Graphpad Prism software to generate IC50 values.

The structures appear in SMILES notation.

T1 sequence (P08069 974-1293): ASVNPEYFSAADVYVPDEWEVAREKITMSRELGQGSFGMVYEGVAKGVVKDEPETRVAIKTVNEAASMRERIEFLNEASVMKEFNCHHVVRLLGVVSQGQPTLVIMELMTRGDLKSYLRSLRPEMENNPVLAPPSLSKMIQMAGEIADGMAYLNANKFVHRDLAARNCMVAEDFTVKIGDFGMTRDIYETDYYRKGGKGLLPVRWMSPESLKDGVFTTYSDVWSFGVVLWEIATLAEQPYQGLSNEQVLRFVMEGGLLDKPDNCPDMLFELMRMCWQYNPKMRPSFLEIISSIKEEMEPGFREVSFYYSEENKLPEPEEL

In general, IC50 refers to the concentration that inhibits the measured activity by half. Consider `CC1CCN(CCc2ccc(NC(=O)c3cn(-c4cccc(-c5ccc(N(C)C)cc5)n4)nc3N)cc2)CC1`, for which the IC50 is ≤ 5 µM in test [1], 5 to 10 µM in test [2] and 5 to 10 µM in test [3]. Consider `CCN(CC)CCOc1ccc(NC(=O)c2cn(-c3ncc4c(n3)-c3ccccc3OC4)nc2N)cc1`, for which the IC50 in test [1] was ≤ 5 µM; in test [3], > 25 µM. Turning to `CN1CCN(CCc2ccc(NC(=O)c3cn(-c4nccc(-c5ccc(N(C)C)cc5)n4)nc3N)cc2)CC1`, the half-inhibitory concentration (IC50) was ≤ 5 µM in test [1], 10 to 15 µM in test [2] and 5 to 10 µM in test [3]. On the same counts, the results for `COc1ccc2c(c1)CCc1cnc(-n3cc(C(=O)NCCc4c[nH]c5ccccc45)c(N)n3)nc1-2` are ≤ 5 µM, 5 to 10 µM and > 25 µM. On the same counts, the results for `COc1ccc2c(c1)CCc1cnc(-n3cc(C(=O)NCc4nc5ccccc5[nH]4)c(N)n3)nc1-2` are ≤ 5 µM, 5 to 10 µM and 5 to 10 µM. On the same counts, the results for `COc1ccc2c(c1)CCc1cnc(-n3cc(C(=O)Nc4ccc(/C=C/CN5CCN(C)CC5)cc4)c(N)n3)nc1-2` are ≤ 5 µM, 10 to 15 µM and 5 to 10 µM. In the case of `COc1ccc2c(c1)CCc1cnc(-n3cc(C(=O)NC4CCN(CCCc5ccncc5)CC4)c(N)n3)nc1-2`, the figures for the IC50 in test [1], in test [2] and in test [3] were ≤ 5 µM, 5 to 10 µM and ≤ 5 µM, respectively.

On to `CN1CCN(CCc2ccc(NC(=O)c3cn(-c4ncc5c(n4)-c4cc(Cl)ccc4OC5)nc3N)cc2)CC1`, for which the IC50 in test [1] is ≤ 5 µM; in test [2] it was 10 to 15 µM; in test [3], 5 to 10 µM.

Consider `COc1ccc2c(c1)CCc1cnc(-n3cc(C(=O)Nc4ccc(CCN5CCC(N)CC5)cc4)c(N)n3)nc1-2`, for which the IC50 in test [1] is ≤ 5 µM; in test [2], > 25 µM.

In the case of `COc1ccc2c(c1)CCc1cnc(-n3cc(C(=O)Nc4ccc(CCN5CCN6CCC[C@H]6C5)cc4)c(N)n3)nc1-2`, the IC50 in test [1] was ≤ 5 µM; in test [2], 10 to 15 µM; in test [3] it was 5 to 10 µM. As for `CN1CCN(Cc2ccc(NC(=O)c3ccc4[nH]c(-c5cc(Br)ccc5O)nc4c3)cc2)CC1`, the concentration for half-maximal inhibition (IC50) was ≤ 5 µM in test [1] and 10 to 15 µM in test [2]. As for `CN1CCN(c2ccc(NC(=O)c3ccc4nc(-c5ccc6ccccc6c5O)[nH]c4c3)cc2)CC1`, the 50% inhibitory concentration (IC50) in test [1] is ≤ 5 µM; in test [2] it was 10 to 15 µM; in test [3] it was 5 to 10 µM. For `COc1ccc2c(c1)CCc1cnc(-n3cc(-c4nc5cc(N6CCN(C)CC6)ccc5[nH]4)c(N)n3)nc1-2` the same measures were ≤ 5 µM, 10 to 15 µM and 5 to 10 µM. For `CN1CCN(CCc2ccc(NC(=O)c3ccc4nc(-c5nc6ccccc6[nH]5)[nH]c4c3)cc2)CC1` the same measures were ≤ 5 µM, > 25 µM and 5 to 10 µM.

Regarding `CN1CCN(c2ccc3nc(-c4nc5ccccc5[nH]4)[nH]c3c2)CC1`, the IC50 is ≤ 5 µM in test [1], 10 to 15 µM in test [2] and 10 to 15 µM in test [3]. With `CN1CCN(c2ccc3nc(-c4cc(-c5ccc(N(C)C)cc5)ccc4O)[nH]c3c2)CC1`, the 50% inhibitory concentration (IC50) is ≤ 5 µM in test [1], 10 to 15 µM in test [2] and 5 to 10 µM in test [3]. On the same counts, the results for `COc1ncccc1-c1ccc(O)c(-c2nc3ccc(C(=O)Nc4ccc(CCN5CCN(C)CC5)cc4)cc3[nH]2)c1` are ≤ 5 µM, 5 to 10 µM and ≤ 5 µM. For `CN1CCN(c2ccc3nc(-c4cc(-c5ccccc5)ccc4O)[nH]c3c2)CC1` the same measures were ≤ 5 µM, > 25 µM and 10 to 15 µM. Consider `CN1CCN(CCc2ccc(NC(=O)c3ccc4nc(-c5cc(-c6cccnc6O)ccc5O)[nH]c4c3)cc2)CC1`, for which the half-maximal inhibitory concentration (IC50) in test [4] is 0.02 to 0.2 µM. For the compound `COc1ncccc1-c1ccc(O)c(-c2nc3cc(C(=O)NCc4ccc(CN5CCN(C)CC5)cc4)ccc3[nH]2)c1`, the 50% inhibitory concentration (IC50) in test [4] is > 0.2 µM. Still for that read-out and setting: the figure for `COc1ncccc1-c1ccc(O)c(-c2nc3ccc(C(=O)NC4CCCC(N)C4)cc3[nH]2)c1` (stereo not drawn) is > 0.2 µM; for `COc1ncccc1-c1ccc(O)c(-c2nc3ccc(C(=O)NCc4ccc5c(c4)CCCN5C)cc3[nH]2)c1` it is > 0.2 µM. Turning to `COc1ncccc1-c1ccc(O)c(-c2nc3ccc(C(=O)NCC4CCN(Cc5ccccc5)C4)cc3[nH]2)c1` (stereo not drawn), the 50% inhibitory concentration (IC50) in test [4] lay in the range of 0.02 to 0.2 µM.

On to `COc1ncccc1-c1ccc(O)c(-c2nc3ccc(C(=O)NCCc4c[nH]cn4)cc3[nH]2)c1`, for which the 50% inhibitory concentration (IC50) in test [4] lay in the range of 0.02 to 0.2 µM. On the same count and under the same terms, the result for `COCCN1CCC(CNC(=O)c2ccc3nc(-c4cc(-c5cccnc5OC)ccc4O)[nH]c3c2)C1` (stereo not drawn) reads 0.02 to 0.2 µM; that for `COc1ncccc1-c1ccc(O)c(-c2nc3ccc(C(=O)NCC4CCN(CCO)CC4)cc3[nH]2)c1`, < 0.02 µM; that for `COc1ncccc1-c1ccc(O)c(-c2nc3ccc(C(=O)NCCC4CCCN4C)cc3[nH]2)c1` (stereo not drawn), 0.02 to 0.2 µM. Consider `COc1ncccc1-c1ccc(O)c(-c2nc3ccc(C(=O)NCCCN4CCCCC4C)cc3[nH]2)c1` (stereo not drawn), for which the IC50 in test [4] was < 0.02 µM. As to `CCN(CC)CCCNC(=O)c1ccc2nc(-c3cc(-c4cccnc4OC)ccc3O)[nH]c2c1`, the IC50 in test [4] is < 0.02 µM.

In the case of `COc1ncccc1-c1ccc(O)c(-c2nc3ccc(C(=O)NCC4CCCC(CN)C4)cc3[nH]2)c1` (stereo not drawn), in test [4], the half-maximal inhibitory concentration (IC50) is > 0.2 µM. On to `COc1ncccc1-c1ccc(O)c(-c2nc3ccc(C(=O)NCCCN4CCN(C)CC4)cc3[nH]2)c1`, for which the IC50 in test [4] was > 0.2 µM. For the compound `COc1ncccc1-c1ccc(O)c(-c2nc3ccc(C(=O)NCCCCCN(C)C)cc3[nH]2)c1`, the IC50 in test [4] is > 0.2 µM. The same measure, in the same setting: the result for `COc1ncccc1-c1ccc(O)c(-c2nc3ccc(C(=O)Nc4ccc(OCCCN5CCN(C)CC5)cc4)cc3[nH]2)c1` reads > 0.2 µM; that for `COc1ncccc1-c1ccc(O)c(-c2nc3ccc(C(=O)Nc4ccc(OCCN5CCN(C)CC5)cc4)cc3[nH]2)c1`, > 0.2 µM. Same read-out and setting: the result for `COc1ncccc1-c1ccc(O)c(-c2nc3ccc(C(=O)Nc4ccc(CCN5CCN(c6ccncc6)CC5)cc4)cc3[nH]2)c1` reads 0.02 to 0.2 µM; that for `COc1ncccc1-c1ccc(O)c(-c2nc3cc(C(=O)NCCc4c[nH]cn4)c(F)cc3[nH]2)c1`, < 0.02 µM. As to `COC(=O)[C@H](Cc1c[nH]cn1)NC(=O)c1ccc2[nH]c(-c3cc(-c4cccnc4OC)ccc3O)nc2c1`, in test [4], the concentration for half-maximal inhibition (IC50) was in the range of 0.02 to 0.2 µM.

On to `COc1ncccc1-c1ccc(O)c(-c2nc3cc(C(=O)N[C@@H](Cc4c[nH]cn4)C(N)=O)ccc3[nH]2)c1`, for which the IC50 in test [4] is < 0.02 µM. The same measure, in the same setting: the result for `COc1ncccc1-c1ccc(O)c(-c2nc3cc(C(=O)N[C@H](CO)Cc4c[nH]cn4)ccc3[nH]2)c1` reads < 0.02 µM; that for `COc1ncccc1-c1ccc(O)c(-c2nc3cc(C(=O)N[C@@H](CO)Cc4c[nH]cn4)ccc3[nH]2)c1`, < 0.02 µM; that for `COc1ncccc1-c1ccc(O)c(-c2nc3cc(C(=O)N[C@@H](C)Cc4c[nH]cn4)ccc3[nH]2)c1`, > 0.2 µM.

In the case of `O=C(NCCc1c[nH]cn1)c1cc2nc(-c3cc(-c4cccnc4O)ccc3O)[nH]c2cc1Cl`, in test [4], the IC50 was < 0.02 µM. As to `CN1CCN(CCc2ccc(NC(=O)c3cc4nc(-c5cc(-c6cccnc6O)ccc5O)[nH]c4cc3Cl)cc2)CC1`, the half-maximal inhibitory concentration (IC50) in test [4] is 0.02 to 0.2 µM. On to `COc1cc(O)c(-c2nc3ccc(C(=O)NCCc4c[nH]cn4)cc3[nH]2)cc1-c1cccnc1OC`, for which the IC50 in test [4] was in the range of 0.02 to 0.2 µM. `CCN1CCC2(CCN(CCc3ccc(NC(=O)c4ccc5[nH]c(-c6cc(-c7cccnc7O)ccc6O)nc5c4)cc3)C2)C1` (stereo not drawn) [drawing 1792]: the IC50 in test [4] is < 0.02 µM. Regarding `CN1CCCC2(CCCN(CCc3ccc(NC(=O)c4ccc5nc(-c6cc(-c7cccnc7O)ccc6O)[nH]c5c4)cc3)C2)C1` (stereo not drawn) [drawing 1793], the IC50 in test [4] is > 0.2 µM. Consider `COc1ncccc1-c1ccc(O)c(-c2nc3ccc(C(=O)NCCCCN4CCCC4)cc3[nH]2)c1` [drawing 1800], for which the half-inhibitory concentration (IC50) in test [4] was < 0.02 µM. Same read-out and setting: the figure for `COc1ncccc1-c1ccc(O)c(-c2nc3ccc(C(=O)NCCCCN4CCCC4)cc3[nH]2)c1` [drawing 1807] is > 0.2 µM.

The record behind these values is US8629147B2, “Heterocyclic compounds useful in the treatment of neoplastic diseases, inflammatory disorders and immunomodulatory disorders” (ChemBridge Corporation, priority 2005, dated 2014).
